The results in this text go back to patent publication US20260000781A1, “FC CONJUGATES INCLUDING AN INHIBITOR OF CD73 AND USES THEREOF” (Cidara Therapeutics, Inc., priority 2022, published 2026).

SMILES strings stand for the structures.

Test [1] concerns breast tumor cell line EMT-6. Briefly: Syngeneic mouse tumor efficacy model with breast tumor cell line EMT-6. The format is in vivo. The settings on record: EMT-6, IP. As to the method:
Tumor efficacy models were conducted in female BALB/c mice (Charles River laboratories; 18-22 g) injected with the breast tumor cell line EMT-6 (ATCC; CRL-2755). Briefly, EMT-6 cells propagated and prepared by standard methods were resuspended in PBS and injected subcutaneously (in a 100 μL volume) into the shaved right flank of mice. Five days after cell injection, and prior to measurable tumor formation, treatment was initiated via IP injection (10 mL/kg) of test articles or controls. […] The test article was Conjugate 172a dosed at 30 mg/kg twice weekly, for 3 weeks. The final group consisted of mice dosed with both the anti-PD-1 mAb and Conjugate 172a at 30 mg/kg using the respective dosing schedules for each.
Each group consisted of 15 animals and tumors were measured 3× weekly with calipers on Mon/Wed/Fri. Tumor volumes were calculated based on the following formula: [(width×width×length)/2]. All tumors were monitored until the maximum allowed volume was reached (=>2,000 mm^3).
Although occasionally an animal would be removed from study if the tumor grew internally causing undo stress to the animal, or the inability to measure the tumor accurately. Data was analyzed and graphed with Graphpad Prism 6.00. Where conducted, statistical evaluation used the Mann-Whitney variation of the t-test. […]

Test [2] relates to colon tumor cell line CT26. Briefly: Syngeneic mouse tumor efficacy model with colon tumor cell line CT26. The format is in vivo. The note with it: CT26, Day 10, 210 mg/kg/wk (30 mg/kg IP daily). As to the method:
Tumor efficacy models were conducted in female BALB/c mice (Charles River; 18-22 g) injected with the colon tumor cell line CT26 (ATCC; CRL-2638). Briefly, CT26 cells freshly prepared and resuspended in PBS were injected SC into the shaved right flank of mice. Tumors were allowed to grow until they became measurable (˜50 mm^3) (typically after 7-10 days of growth). Mice were then randomized so each starting group had approximately the same tumor group average (typical+/−5 mm^3) and treatment initiated. Each group consisted of 10 animals. Conjugate 133a was dosed at 20 mg/kg via intraperitoneal (IP) injection on MWF, for 2 weeks. […] The study also included a vehicle (PBS) only treatment group with the aforementioned schedule. After initiation of treatment tumors were measured 3×/week with tumor volumes calculated based on the following formula: (width×width×length)/2. All tumors were monitored until the maximum allowed volume was reached (=>2,000 mm^3).
Tumor efficacy models were conducted in female BALB/c mice (Charles River; 18-22 g) injected with the colon tumor cell line CT26 (ATCC; CRL-2638). […] After initiation of treatment tumors were measured 3×/week with tumor volumes calculated based on the following formula: (width×width×length)/2. All tumors were monitored until the maximum allowed volume was reached (=>2,000 mm^3). […]

The test system of a further test is human T cells. Briefly: Rescue of T cell activation in the presence of AMP. The format is cell-based. The settings on record: CD25, 72 h. As to the method: Human T cells (cat. no. 72400, Stem Cell Tech) were activated with anti-CD3/CD28/CD2 T cell activator (cat. no. 10970, Stem Cell Technologies) and seeded at 1×10^5 cells/well in ImmunoCult™—XF T Cell Expansion medium into 96-well tissue culture-treated plates. Test articles were added at concentrations ranging from 1 to 10,000 nM. Next, adenosine 5′-monophosphate (AMP; cat. no 01930, Sigma) was added at 30 μM or 100 μM. Cells, test articles and AMP were incubated at 37° C., 5% CO2 for 72 h. After 72 h, cell supernatant was removed, and T cells were washed in staining buffer prior to staining for CD25 with anti-human CD25 PE antibody (cat. no 60153PE, Stem Cell Technologies, clone 2A3). After staining, cells were washed in staining buffer. 10,000 events were collected on flow cytometer Northern Lights (Cytek). Percent rescue versus concentration were plotted using GraphPad Prism Version 8 and EC50's calculated using nonlinear regression analysis ([inhibitor]vs normalized response).

Regarding `C[C@H](Nc1cc(Cl)nc2c1cnn2[C@@H]1O[C@H](COP(=O)(O)CP(=O)(O)O)[C@@H](O)[C@H]1O)c1ccccc1F` [AB680], in test [1] (15 animals per group, regimens as for % tumor reduction), the “% Complete regression (Day 36)” value is reported as 6.7%. The “% Tumor reduction (Day 22)” value in test [1] (Conjugate 172a 30 mg/kg twice weekly for 3 weeks, AB680 30 mg/kg daily, anti-PD-1 mAb on Day 0, 2, 4, 7, 9, 12) worked out at 0%. For the same compound, the “reduction in tumor volume compared to the vehicle group” value in test [2] stood at 50.7%.

As a reminder, the EC50 is the concentration needed to bring the measured effect to its halfway point. Consider `COC[C@](CO)(OC[C@H]1O[C@@H](n2ncc3c(NC4CCCC4)nc(Cl)nc32)[C@H](O)[C@@H]1O)P(=O)(O)O` [OP5244], for which the values for the EC50 in the test on human T cells (30 μM AMP) and with human T cells (100 μM AMP) were 2.88 nM and 8.37 nM, respectively.
